{"source": "patent US20250262358A1", "about": "“SURGICAL SYSTEM AND METHODS OF USE” (MEDTRONIC, INC., priority 2021, published 2025)", "origin": "cited, not measured here", "test_system": "myofibroblast formation", "conditions": "animal studies of capsular contracture with breast implants; Ajmal et al. (2003)"}
{"molecule": "O=S(=O)([O-])CCS.[Na+]", "note": "[MESNA, sodium 2-mercaptoethane sulfonate]", "values": [{"measurement": "myofibroblast formation", "value": "diminish myofibroblast formation"}]}
